We go through six compounds from patent publication US11225460B2, “Pyrrolidineamide derivatives and uses thereof” (SUNSHINE LAKE PHARMA CO., LTD., priority 2019, dated 2022).

Each structure is given as a SMILES string.

For data set [1], the target named is T1, Human recombinant monoamine oxidase B (Homo sapiens, UniProt P27338).
T1 construct: host or cells: Sf9 cells
T1 sequence (P27338 1-520): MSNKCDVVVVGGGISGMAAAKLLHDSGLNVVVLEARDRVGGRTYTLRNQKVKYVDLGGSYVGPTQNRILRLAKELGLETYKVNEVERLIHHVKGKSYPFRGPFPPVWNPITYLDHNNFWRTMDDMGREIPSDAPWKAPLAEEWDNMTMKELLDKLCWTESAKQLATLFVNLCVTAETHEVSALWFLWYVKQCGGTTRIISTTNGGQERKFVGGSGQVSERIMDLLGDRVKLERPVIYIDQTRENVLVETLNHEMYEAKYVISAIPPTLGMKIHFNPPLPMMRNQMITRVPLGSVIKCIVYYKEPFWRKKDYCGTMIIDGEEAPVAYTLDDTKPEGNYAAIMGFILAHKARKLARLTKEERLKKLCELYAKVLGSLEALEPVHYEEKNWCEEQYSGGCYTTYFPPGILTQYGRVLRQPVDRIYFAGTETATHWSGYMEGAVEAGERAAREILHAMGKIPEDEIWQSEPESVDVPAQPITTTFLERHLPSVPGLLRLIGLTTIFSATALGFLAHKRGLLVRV
Kind of data set: Inhibitory effect on the activity of monoamine oxidase B. The data set is classed as biochemical. Conditions: human recombinant MAO-B, substrate benzylamine hydrochloride. The method, then:
Human recombinant monoamine oxidase B expressed in Sf9 cells was used in the test system. In the experiment, firstly, the recombinant monoamine oxidase B was dissolved in the pre-configured HEPES buffer (0.8% NaCl, 0.037% KCl, 0.0135% Na2HPO4.2H2O, 0.1% Glucan, 0.5% HEPES, pH=7.0) at a concentration of 0.3 μg/μL. To each well of a 384-well plate was added 10 μL of monoamine oxidase B solution, and the test compound with different concentrations (the final concentration of DMSO was 1%) (10 gradient concentrations were 10 mM, 1 mM, 100 μM, 10 μM, 1 μM, 100 nM, 10 nM, 1 nM, 0.1 nM, 0.01 nM) were added into the wells respectively. The standard reference compound was R-(−)-Deprenyl, the plate was incubated at room temperature for 15 min. Then, each well filled with 10 μL substrate solution (Benzylamine hydrochloride, 1 mM) was incubated at room temperature for 60 min. Then 20 μL of fluorescein detection reagent was added to each well, which was fully blended and incubated at room temperature for 20 minutes to produce stable fluorescence signal. The fluorescence signal was read by fluorescein labeling instrument, and the value was expressed by relative light intensity (RLU). The inhibitory rate on enzyme activity was calculated according to the experimental results, the calculated formula: Inh %=(Max−Signal)/(Max−Min)*100, wherein Max was the detected value at the maximum concentration of the sample, Min was the detected value at the minimum concentration of the sample, and Signal was the detected value at the current concentration of the sample.
(§1) The standard curve was obtained through the series concentration by experimental test to calculate the IC50.

Data set [2] is described as follows: Pharmacokinetic evaluation after intravenous or gavage administration in rats. The data set is classed as in vivo, SD rats. The method, then: The LC-MS/MS system comprises Agilent 1200 series vacuum degassing furnace, quaternary pumps, well-plate autosampler, thermostatted column compartment, the API4000Qtrap Triple Quadrupole Mass Spectrometer with an electrospray ionization (ESI) source. Quantitative analysis was carried out using MRM mode. The parameters for MRM transitions are in Table 2.
Analysis was carried out on waters xbridge C18 (2.1×50 mm, […] column, 0.5 μL of sample), the analytic conditions are mobile phases cosisting of water+2 mM ammonium formate+0.1% formic acid (Phase A) and methanol+2 mM ammonium formate+0.1% formic acid (Phase B). The flow rate was 0.4 mL/min. And the gradient of Mobile phase was in Table 3.
Each animal species was divided into two groups: one was administered intravenously and the other was administered intragastrically. The compounds disclosed herein were administered in form of a solution containing 5% DMSO+5% Kolliphor HS15+90% Saline. For the group of intravenous administration, the administration dose was 1 mg/kg, and vein blood samples (0.3 ml) were collected at the time points of 0.083, 0.25, 0.5, 1.0, 2.0, 4.0, 6.0, 8.0 and 24 h after drug administration, then plasma solutions were collected by centrifuging each blood sample at 3000 rpm or 4000 rpm for 10 minutes and kept at −20° C. or −70° C. For the group of intragastric administration, the administration dose was 5 mg/kg, and vein blood samples (0.3 mL) were collected at the time points of 0.25, 0.5, 1.0, 2.0, 4.0, 6.0, 8.0 and 24 h after drug administration, then plasma solutions were collected by centrifuging each blood sample at 3000 rpm or 4000 rpm for 10 minutes and kept at −20° C. or −70° C.
20 μL of plasma was blended with 120 μl, 50 ng/ml propranolol standard water solution, then the mixture was extracted with 1.0 mL methyl tert-butyl ether (MTBE), 0.7 mL of supernatant was dried by blow with nitrogen and then dissolved again with 220 μL methanol water (methanol/water (v/v)=1/1). LC-MS/MS method was used to detect the concentration of the target compounds, and […] was used to calculate the pharmacokinetic parameters.

The target of data set [3] is T2, Human recombinant monoamine oxidase A (Homo sapiens, UniProt P21397).
T2 construct: host or cells: Sf9 cells
T2 sequence (P21397 1-527): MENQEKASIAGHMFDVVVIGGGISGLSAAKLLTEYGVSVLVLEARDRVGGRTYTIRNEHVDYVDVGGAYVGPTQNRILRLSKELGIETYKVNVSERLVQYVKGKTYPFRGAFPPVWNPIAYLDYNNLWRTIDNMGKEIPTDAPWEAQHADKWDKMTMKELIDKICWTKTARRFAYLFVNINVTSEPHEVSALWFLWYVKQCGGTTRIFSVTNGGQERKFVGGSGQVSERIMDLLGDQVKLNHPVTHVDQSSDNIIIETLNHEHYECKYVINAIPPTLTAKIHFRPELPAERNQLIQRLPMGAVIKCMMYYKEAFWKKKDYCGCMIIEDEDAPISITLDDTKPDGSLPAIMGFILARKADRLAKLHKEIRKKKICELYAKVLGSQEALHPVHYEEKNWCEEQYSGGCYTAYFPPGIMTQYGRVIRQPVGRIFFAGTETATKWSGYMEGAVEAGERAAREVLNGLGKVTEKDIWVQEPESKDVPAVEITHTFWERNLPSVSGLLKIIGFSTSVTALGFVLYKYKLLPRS
Kind of data set: Inhibitory effect on the activity of monoamine oxidase A. In kind it is biochemical. Conditions: human recombinant MAO-A, substrate p-tyramine hydrochloride. As to the method:
Human recombinant monoamine oxidase A expressed in Sf9 cells was used in the test system. In the experiment, firstly, the recombinant monoamine oxidase A was dissolved in the pre-configured HEPES buffer (0.8% NaCl, 0.037% KCl, 0.0135% Na2HPO4.2H2O, 0.1% Glucan, 0.5% HEPES, pH=7.0) at a concentration of 0.3 μg/μL. To each well of a 384-well plate was added 10 μL of monoamine oxidase A solution, and the test compound with different concentrations (the final concentration of DMSO was 1%) (10 gradient concentrations were 10 mM, 1 mM, 100 μM, 10 μM, 1 μM, 100 nM, 10 nM, 1 nM, 0.1 nM, 0.01 nM) were added into the wells, respectively. The standard reference compound was Clorgyline, the plate was incubated at room temperature for 15 min. Then, each well filled with […] (p-Tyramine hydrochloride, 1 mM) was incubated at room temperature for 60 min. Then 20 μL of fluorescein detection reagent was added to each well, which was fully blended and incubated at room temperature for 20 minutes to produce stable fluorescence signal. The fluorescence signal was read by fluorescein labeling instrument, and the value was expressed by relative light intensity (RLU). The inhibitory rate on enzyme activity was calculated according to the experimental results, the calculated formula: Inh %=(Max−Signal)/(Max−Min)*100, wherein Max was the detected value at the maximum concentration of the sample, Min was the detected value at the minimum concentration of the sample, and Signal was the detected value at the current concentration of the sample.
as §1

The mark [4] stands for this setting: SD, rat, plasma, iv, i.v group, 1 mg/kg.
Where [5] appears, read: SD, rat, plasma, po, i.g group, 5 mg/kg.

Consider `CC1(C)C[C@@H](C(N)=O)N(Cc2ccc(OCc3cccc(F)c3)cc2)C1` [Example 8, (S)-1-(4-(3-fluorobenzyloxy)benzyl)-4,4-dimethylpyrrolidine-2-formamide], for which the IC50 in data set [1] amounted to 1400 nM.
In the case of `NC(=O)[C@@H]1CC(F)(F)CN1Cc1ccc(OCc2cccc(F)c2)cc1` [Example 10, (S)-4,4-difluoro-1-(4-(3-fluorobenzyloxy)benzyl)pyrrolidine-2-formamide], in data set [1], the IC50 amounted to 1100 nM.
On the same count and under the same terms, to `NC(=O)[C@@H]1CC(F)(F)CN1Cc1ccc(OCc2cccc(F)c2)cc1F` [Example 11, (S)-4,4-difluoro-1-(2-fluoro-4-(3-fluorobenzyloxy)benzyl) pyrrolidine-2-formamide] belongs 2200 nM.
As to `NC(=O)[C@@H]1C[C@@H](F)CN1Cc1ccc(OCc2cccc(F)c2)cc1` [Example 12, (2S,4R)-4-fluoro-1-(4-(3-fluorobenzyloxy)benzyl)pyrrolidine-2-formamide], in data set [2] (setting [4]), the AUC(0-inf) was 453 ng·h/mL, the AUC(0-t) was determined as 452 ng·h/mL, the peak level (Cmax) was 661 ng/mL and the MRT inf was determined as 40 min. In data set [2] (setting [4]), the time to peak (Tmax) came to 4.98 min, the clearance came out at 36.8 mL/min/kg and the half-life was 37 min. In data set [2] (setting [5]), this compound displayed an AUC(0-inf) of 1830 ng·h/mL, an AUC(0-t) of 1820 ng·h/mL, a Cmax of 1010 ng/mL and an MRT inf of 78.6 min. In data set [2] (setting [5]), the Tmax is 20 min and the half-life was 39.1 min. For the same compound, the F in data set [2] (i.g group, 5 mg/kg) worked out at 80.7%. Moreover, the IC50 in data set [1] is 720 nM.
Take `C[C@H]1C[C@@H](C(N)=O)N(Cc2ccc(OCc3cccc(F)c3)cc2)C1` [Example 14, (2S,4S)-1-(4-(3-fluorobenzyloxy)benzyl)-4-methylpyrrolidine-2-formamide]: the IC50 was 27000 nM in data set [3] and 83 nM in data set [1].
For the compound `C[C@H]1C[C@@H](C(N)=O)N(Cc2ccc(OCc3cccc(F)c3)cc2F)C1` [Example 15, (2S,4S)-1-(2-fluoro-4-(3-fluorobenzyloxy)benzyl)-4-methylpyrrolidine-2-formamide], the IC50 turned out to be 29000 nM in data set [3] and 130 nM in data set [1].

For orientation: IC50 means the concentration at which inhibition is half-maximal. What is called AUC(0-inf) is total exposure, with the tail of the curve extrapolated. The term AUC(0-t) denotes the area under the concentration-time curve up to a stated or last time point. The Cmax is the maximum level reached in the sampled fluid or tissue. As usually defined, the MRT inf is the average time that molecules of a dose stay in the body. As a reminder, the Tmax is the time from dosing to the highest level. One may read the half-life as the time in which the quantity being followed falls by half. Low values mean rapid decline, high ones slow decline.
